The source of these data is patent US7786176B2, “Vaginal treatment composition containing xylitol” (Kimberly-Clark Worldwide, Inc., priority 2005, dated 2010).

“Also recorded” adds a separate entry of the source.

Common to all, as to type: cell-based
For test [1], the system named is Gardnerella vaginalis. Briefly: Gardnerella vaginalis optical density with sugars and sugar derivatives (Example 15). The conditions noted are these: 24 hours; 1.0% (wt/vol), FIG. 12. As for the experimental part:
A growth medium for Gardnerella vaginalis was prepared according to the manufacturer's instructions, and the pH of this medium was adjusted to pH 6.0 using 1 N HCl. D-ribose (99%, Calbiochem), D-arabinose (98%, Alfa Aesar), D-xylose (Aldrich), D-lyxose (99%, Avovado), D-arabitol (97%, Alfa Aesar), adonitol (99%, Alfa Aesar), xylitol (99%, Alfa Aesar), xylitol (98%, Danisco), and xylitol (98%, Aldrich) were then dissolved into the growth medium at a concentration of 1.0% (wt/vol). 0.9 milliliters of the culture medium was also added into a different culture tube as a control. Thereafter, 0.1 milliliter of Gardnerella vaginalis culture suspension (concentration of 1×10^6/milliliter) was added to each of the culture tubes, and then incubated overnight at 37° C., and the optical density was then measured after 24 hours at a wavelength of 595 nanometers. This was accomplished by pipetting 100 microliters of the control or sample solutions into 96-well microplates, and then using a ThermoMax Microplate Reader from Molecular Devices of Sunnyvale, Calif. to obtain the optical density readings. The results are depicted in FIG. 12.

The test system of test [2] is Gardnerella vaginalis. In words: Zone of inhibition on agar plates, Gardnerella vaginalis (Examples 8, 11). On the procedure:
(§1) A microorganism culture of 10^5 cfu (colony forming units)/ml in a 1× phosphate buffered saline (PBS) solution (diluted from 10×PBS LIQUID CONCENTRATE from VWR Cat. No. EM-6507] was used. One milliliter of the solution was plated on proper agar plates, depending on which microorganism was being tested. The agar plates were incubated at 35° C. for 4 hours. Three 4-millimeter diameter wells were then punched in each agar plate. A test sample of 100 microliters of 5% xylitol in sterilized 2-N-morpholino ethane sulfonic buffer (0.1 M 2-[morpholino]-ethanesulfonic acid, 0.9% NaCl, pH 4.7, prepared from BupH™ MES Buffer Saline Pack from Cat. No. 28390, Pierce Biotechnology, Inc., Rockford, Ill.) was added to one well of each plate. Into each of the other two wells were added MES buffer and 1% benzyl quats (diluted from BARDAC.® 205M, from Lonza Inc., Fair Lawn, N.J.) as negative and positive controls, respectively. The plates were incubated overnight at 35° C.
(§2) The following day, the “zone of inhibition” for each sample was then measured for Gardnerella vaginalis and Lactobacillus acidophilus activity. The “zone of inhibition” is a circular zone formed around the agar plate in which the growth of the microorganism is inhibited. […] However, when growth is inhibited, a clear zone is observed. The diameter of this clear zone may thus be used as an indicator of antimicrobial effectiveness.
(§3) Sorbitol, glucose, and xylitol were tested as described in Example 8.

In test [3] the test system is Lactobacillus acidophilus. Briefly: Optical density growth test, Lactobacillus acidophilus (Example 9). The conditions noted are these: 2, 4, 6 and 24 hours, FIG. 7. On the procedure:
(§4) Test compounds were dissolved in culture media to form a suspension. Control or xylitol solutions (0.9 milliliters) were filtered and added into culture tubes, and to this was added 0.1 milliliter of either the Gardnerella vaginalis or Lactobacillus acidophilus suspension at a concentration of around 10^6 cfu/milliliter. The culture tubes were then incubated overnight at 37° C., whereafter the optical density was measured at 2, 4, 6 and 24 hours by pipetting 100 microliters of the control or sample solutions into 96-well microplates, and then using a ThermoMax Microplate Reader (Molecular Devices of Sunnyvale, Calif.) to obtain the optical density readings at 590 or 600 nm wavelengths. […] The inhibition effect remained evident throughout the 24-hour experimental period.

Test [4] deals with Lactobacillus acidophilus. Briefly: Plate count after 6 hours treatment, Lactobacillus acidophilus (Example 10). The settings on record: 1% and 5% xylitol. As for the experimental part:
(§5) Test compounds were dissolved in culture media to form a suspension. Control or xylitol solutions (0.9 milliliters) were filtered and added into culture tubes. To these solutions, 0.1 milliliter of the Gardnerella vaginalis or Lactobacillus acidophilus suspension was then added at a concentration of around 10^6 cfu/milliliter. The culture tubes were incubated at 37° C. for 6 hours. The samples in the culture tubes were then diluted at 1, 10 and 100 times, and 100 microliters of each dilution was plated onto agar plates with WASP (Whitely Automatic Spiral Plate) spiral plating equipment from Don Whitely Scientific Limited, USA. The plates were incubated overnight at 35° C., and the numbers of colonies were counted on each plate by either ProtoCol® from Synbiosis, Frederick, Md., USA Whitely Scientific Limited, USA or by hand count. The results are shown below in Tables 7-8 and in FIG. 6.

Test [5] concerns Gardnerella vaginalis. In words: Plate count after 6 hours treatment, Gardnerella vaginalis (Example 10). The conditions noted are these: all five concentrations, 1-5%. As for the experimental part: as §5
The subject of test [6] is Gardnerella vaginalis. In words: Optical density growth test, Gardnerella vaginalis (Example 9). The conditions noted are these: 2, 4, 6 and 24 hours, FIG. 5. On the procedure:
as §4

In test [7] the test system is Gardnerella vaginalis. In words: Gardnerella vaginalis plate count after treatment with gel compositions (Example 6). On the procedure:
Gardnerella vaginalis was obtained from the American Type Culture Collection (ATCC #14018). The culture medium was Casman's medium base (BD 229010) with 5% rabbit blood (ATCC medium 70).
Initially, eight (8) solutions were formed as set forth below in Table 4.
Samples 1-2 were prepared by dissolving the KELCOGEL® (0.07 grams) and/or xylitol (0.44 grams) into 10 milliliters of water heated to between 70° C. to 80° C. Samples 3-4 and 6 were formed by first autoclaving a gallic acid stock solution (0.75 grams of gallic acid/20 mL water), autoclaving, and then adding 200 microliters of sterile gallic acid (0.0075 grams) to each sterile solution. Sample 5 was formed by dissolving 0.44 grams of xylitol in deionized water, followed by autoclaving. Sample 7 was formed by dissolving 0.44 grams of xylitol in sterilized growth medium for Gardnerella vaginalis and then filtering. The amount of xylitol was selected to yield isotonic solutions. […]
Upon formation, 1 milliliter of each control or sample solution was then added into a culture tube, followed by the addition of 0.8 milliliters of growth medium for Gardnerella vaginalis. […] After 24 and 48 hours, the optical density was measured for each sample at wavelengths of 450 and 595 nanometers. […] The number of colonies on each plate was counted using ProtoCol® software from Synbiosis of Frederick, Md. […]

The test system of the next test is Trichomonas vaginalis. Briefly: Viable Trichomonas vaginalis cell count with xylitol (Example 12). As for the experimental part: Trichomonas vaginalis was obtained from the American Type Culture Collection (ATCC #30001). The culture medium was LYI-S-2 medium (ATCC medium 2154).
A sterile LYI-S-2 medium was prepared according to the manufacturer's instructions, and the pH of this medium was adjusted to pH 6.0 using 1 N HCl. Xylitol was then dissolved into the LYI-S-2 medium at concentrations of 0.5%, 3.0%, and 5.0% (wt/vol). 0.9 milliliters of xylitol and culture medium (as control) were also added into different culture tubes. Thereafter, 0.1 milliliter of Trichomonas vaginalis culture suspension (concentration of 1×10^6/milliliter) was added to each of the culture tubes, and then incubated at 35° C. on a 15 degree horizontal slant. The viable Trichomonas vaginalis cells in each tube were counted under a microscope after 24 and 48 hours. The above procedure was repeated four times for each concentration of xylitol and the control.

The test system of test [8] is Lactobacillus acidophilus. In words: Zone of inhibition on agar plates, Lactobacillus acidophilus (Examples 8, 11). On the procedure:
as §1, §2, §3

For a further test, the system named is Candida albicans. Briefly: Candida albicans viable cell count with xylitol (Example 14). The conditions noted are these: 24 hours; 1%, 2%, 3%, 4%, and 5.0% (wt/vol), FIG. 11. As for the experimental part: A YM culture medium was prepared according to the manufacturer's instructions, and the pH of this medium was adjusted to pH 6.0 using 1 N HCl. Xylitol was then dissolved into the YM medium at concentrations of 1%, 2%, 3%, 4%, and 5.0% (wt/vol). 0.9 milliliters of the culture medium were also added into a different culture tube as a control. Thereafter, 0.1 milliliter of Candida albicans culture suspension (concentration of 1×10^6/milliliter) was added to each of the culture tubes, and then incubated at 37° C. The viable Candida albicans cells in each tube were counted under a microscope after 24 hours. The above procedure was repeated four times for each concentration and the control.

Setting [9] is: 5% in MES buffer pH 4.7, 100 microliters per well.
[10] abbreviates: zone of inhibition testing, concentrations as in Tables 6 and 9.

As to `O=C[C@H](O)[C@H](O)[C@H](O)CO` [D-ribose], the “Gardnerella vaginalis cell count versus control (optical density 595 nanometers)” value in the test with Gardnerella vaginalis [1] is “significantly reduced”.

In the case of `OC[C@@H](O)[C@H](O)[C@@H](O)CO` [xylitol], the “Zone of inhibition, Gardnerella vaginalis” value in the test with Gardnerella vaginalis [2] (setting [9]) and with Gardnerella vaginalis [2] (10%) was 4 mm in each case. Besides, in the test with Gardnerella vaginalis [2] (setting [10]), the “Effect on Gardnerella vaginalis” value was “inhibited; also recorded: inhibitory effect”. The “Gardnerella vaginalis cell count versus control (optical density 595 nanometers)” value in the test with Gardnerella vaginalis [1] is on record as “significantly reduced”. Moreover, the “Inhibition of Lactobacillus acidophilus growth (optical density)” value in test [3] was “did not exhibit any significant inhibition”. Further, in [4], the “Inhibition of Lactobacillus acidophilus growth” value was “did not exhibit any significant inhibition”. Also, the “Inhibition of Gardnerella vaginalis growth compared to control” value in the test with Gardnerella vaginalis [5] is “significant inhibition”. Moreover, the “Inhibition of Gardnerella vaginalis growth (optical density)” value in the test on Gardnerella vaginalis [6] is on record as “significant inhibition”. Moreover, the “Average Plate Count” value in the test with Gardnerella vaginalis [7] (24-hr samples, 4.4 wt/vol % xylitol in growth medium) was 2.40 × 10^4. Moreover, in the test with Gardnerella vaginalis [7] (Example 6), the “Effect on Gardnerella vaginalis growth” value is reported as “significant inhibition”. Also, the “Trichomonas vaginalis cell count versus control” value in the test on Trichomonas vaginalis (24 hours, 0.5%, 3.0%, and 5.0% (wt/vol), FIG. 8) is “significantly reduced”; with Trichomonas vaginalis (48 hours, FIG. 9), “even more significant inhibitory effect”. In the test with Trichomonas vaginalis (48 hours, 3% and 5% xylitol), the “Live Trichomonas vaginalis cells” value is given as “No live Trichomonas vaginalis cells were observed”. The “Zone of inhibition, Lactobacillus acidophilus” value in test [8] (setting [9]) and in [8] (10%) was 0 mm in each case. Besides, the “Effect on Lactobacillus acidophilus” value in [8] (setting [10]) is on record as “did not affect the growth”. Besides, in the test with Candida albicans, the “Candida albicans cell count versus control” value is given as “significantly reduced”.
